Patent US10959974B2, “Ingenol compounds and use thereof in anti-HIV latency treatment” (priority 2015, dated 2021)
Values after ≈ are worked out from the molar mass of the structure shown. Where two headings read alike, the source gives them in different places.

Key:
[1] = tested on: latent HIV in J-Lat-A10.6 or C11 cells; test: Activation of HIV expression in latent cells, flow cytometry of green fluorescent cells (cell line not given); type: cell-based, human; details: treated 48 h
Experimental: (§1) The HIV latent cell model of the present invention comprises: a human T cell 10.6 clone strain carrying a green fluorescent protein gene (J-Lat-A10.6), which is provided by the National Institute of Health Research AIDS Reference Reagent Planning Department, established by Dr. Eric Verdin of the University of California.
(§2) The cells are small and the spherical cells are cultured in suspension. […]
(§3) J-Lat-A10.6 or C11 cells were seeded in 96-well plates at 2×10E4 cells per well, and 100 μl of 1640 medium (Gibco) containing 10% FBS (Gibco) was added to each well. After the cells were treated with the compounds in Examples 1-7 for 48 h, the green fluorescence expression of the cells was observed under a fluorescence microscope, the cells were collected for flow cytometry detection, and the proportion of fluorescent cells was analyzed.
(§4) J-Lat-A10.6 or C11 cells were seeded in 96-well plates at 2×10E4 cells per well, and 100 μl of 1640 medium (Gibco) containing 10% FBS (Gibco) was added to each well. After treatment with different concentrations of compounds (such as the compounds in Examples 1-7) and Prostratin for 48 h, the cells were collected for flow cytometry detection and the proportion of fluorescent cells was analyzed.

[2] = tested on: cells in the known HIV-infected latent reservoir; test: Treatment of cells of the HIV-infected latent reservoir with compound, then antiretroviral drugs; type: cell-based; details: compound treatment followed by antiretroviral drugs, versus untreated viral latent reservoir
[3] = tested on: latent HIV in J-Lat-A10.6 cells; test: Activation of latent HIV in J-Lat-A10.6 cells, GFP fluorescence / flow cytometry; type: cell-based, human; details: 48 h
Experimental: as §1, §2, §3, §4

[4] = tested on: resting CD4+ T cells isolated from the peripheral blood of AIDS patients; test: Activation of latent HIV in peripheral blood resting CD4+ T cells of AIDS patients, real-time PCR of HIV-1 mRNA; type: cell-based, human; details: 0.005 μM, 18 h; compared with control and 5 μg/ml PHA treated cells
Experimental: The resting CD4+ T cells isolated from the peripheral blood of 5 AIDS patients were treated with 5 μg/ml PHA (phytohemagglutinin) (positive control) and 0.005 μM compound 16A for 18 h, and then HIV-1 mRNA was extracted from resting CD4+ T cells and the medium, real-time PCR was used to detect the change of HIV-1 mRNA expression level in resting CD4+ T cells and medium, respectively.

latent HIV in C11 cells = test: Activation of latent HIV in C11 cells, GFP fluorescence / flow cytometry; type: cell-based; details: for EC50: read-out: EC50 of activation of latent HIV-1
Experimental: The cells are small and the spherical cells are cultured in suspension. Human T cell Jurkat […] cells are transfected by the retroviral vector carrying the green fluorescent protein gene HIV-R7/E-/GFP and sorted (Jordan A, Bisgrove D, Verdin E. HIV reproducibly establishes a latent infection after acute infection EMBO J 22:1868-1877, 2003); another established HIV latent screening model C11 clone is obtained by the twice of the sorting and activation on HIV lentivirus-infected T cells. (Chinese patent: 200810038851. X).
as §3, §4

Structure (SMILES) | EC50 ([1]; flow cytometry, J-Lat-A10.6 or C11 cells (not specified for Table 1)) [ng/mL] | activation rate ([1]; proportion of fluorescent cells, J-Lat-A10.6 or C11 cells (not specified), untreated control 2%) [%] | number of viral latent reservoir [2] | proportion of green fluorescent positive cells ([3]; 10 nM, background about 1-2%) [%] | intracellular activated HIV-mRNA [4] | proportion of green fluorescent positive cells (latent HIV in C11 cells; 10 nM, 48 h, C11 cells) [%] | EC50 (latent HIV in C11 cells; C11 cells, 48 h, flow cytometry) [nM] | EC50 ([3]; Homo sapiens, flow cytometry, read-out: EC50 of activation of latent HIV-1) [nM] | EC50 (latent HIV in C11 cells; Human immunodeficiency virus 1, 48 h) [nM]
CCCCCCCCCCCC(=O)O[C@@]12C[C@@H](C)[C@]34C=C(C)[C@H](OC(=O)C(C)C(C)C)[C@@]3(O)[C@H](O)C(CO)=C[C@H](C4=O)[C@@H]1C2(C)C (stereo partly drawn) [Example 1, 3-O-(2,3-dimethylbutanoyl)-13-O-dodecanoyl ingenol] | 2.6 (≈ 4.03 nM) | 93 | significantly lower | 90 | significantly higher | ~80 | 3.53 | – | –
CC(=O)O[C@@]12C[C@@H](C)[C@@]3(O)[C@@H](C=C(CO)C[C@]4(O)C(=O)C(C)=C[C@@H]34)[C@@H]1C2(C)C [Prostratin, reference compound] | – | – | – | – | – | – | – | 860 | 760
